Experimental data as given in ChEMBL document CHEMBL4732204, “Multitargeting application of proline-derived peptidomimetics addressing cancer-related human matrix metalloproteinase 9 and carbonic anhydrase II” (Eur J Med Chem, 2021).

Tests used:
[1] = biological target: Matrix metalloproteinase-9 (Homo sapiens, UniProt P14780); assay: Inhibition of MMP9 (unknown origin) using Mca-Lys-Pro-Leu-Gly-Leu-Dpa-Ala-Arg-NH2 as substrate incubated for 5 min followed by substrate addition and measured for 30 mins by fluorescence based assay
Carbonic anhydrase 1 = Carbonic anhydrase 1 (Homo sapiens, UniProt P00915); assay: Inhibition of human CA1 incubated for 15 mins by stopped-flow CO2 hydration kinetic assay based Cheng-Prusoff equation analysis
Carbonic anhydrase 2 = Carbonic anhydrase 2 (Homo sapiens, UniProt P00918); assay: Inhibition of human CA2 incubated for 15 mins by stopped-flow CO2 hydration kinetic assay based Cheng-Prusoff equation analysis
Carbonic anhydrase 12 = Carbonic anhydrase 12 (Homo sapiens, UniProt O43570); assay: Inhibition of human CA12 incubated for 15 mins by stopped-flow CO2 hydration kinetic assay based Cheng-Prusoff equation analysis
Carbonic anhydrase 9 = Carbonic anhydrase 9 (Homo sapiens, UniProt Q16790); assay: Inhibition of human CA9 incubated for 15 mins by stopped-flow CO2 hydration kinetic assay based Cheng-Prusoff equation analysis
[2] = biological target: 72 kDa type IV collagenase (Homo sapiens, UniProt P08253)
72 kDa type IV collagenase, sequence (P08253 whole entry): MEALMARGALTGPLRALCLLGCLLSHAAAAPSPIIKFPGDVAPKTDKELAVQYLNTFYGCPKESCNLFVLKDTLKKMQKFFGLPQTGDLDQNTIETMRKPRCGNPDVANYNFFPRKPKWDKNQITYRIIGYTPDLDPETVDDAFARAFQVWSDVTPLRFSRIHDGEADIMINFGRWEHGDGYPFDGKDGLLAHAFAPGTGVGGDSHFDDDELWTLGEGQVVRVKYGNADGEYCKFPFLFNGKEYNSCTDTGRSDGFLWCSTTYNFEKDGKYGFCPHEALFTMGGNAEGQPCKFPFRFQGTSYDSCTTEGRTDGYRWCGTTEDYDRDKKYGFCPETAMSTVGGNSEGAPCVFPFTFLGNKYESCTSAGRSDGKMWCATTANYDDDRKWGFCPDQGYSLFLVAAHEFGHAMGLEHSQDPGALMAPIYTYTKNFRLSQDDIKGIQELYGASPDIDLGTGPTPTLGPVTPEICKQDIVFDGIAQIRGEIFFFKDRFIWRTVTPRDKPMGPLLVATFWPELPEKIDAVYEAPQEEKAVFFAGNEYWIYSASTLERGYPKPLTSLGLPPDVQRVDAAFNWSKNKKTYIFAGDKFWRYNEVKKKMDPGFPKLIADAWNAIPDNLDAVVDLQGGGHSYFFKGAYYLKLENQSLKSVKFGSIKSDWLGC

Matrix metalloproteinase-9, sequence (P14780 whole entry): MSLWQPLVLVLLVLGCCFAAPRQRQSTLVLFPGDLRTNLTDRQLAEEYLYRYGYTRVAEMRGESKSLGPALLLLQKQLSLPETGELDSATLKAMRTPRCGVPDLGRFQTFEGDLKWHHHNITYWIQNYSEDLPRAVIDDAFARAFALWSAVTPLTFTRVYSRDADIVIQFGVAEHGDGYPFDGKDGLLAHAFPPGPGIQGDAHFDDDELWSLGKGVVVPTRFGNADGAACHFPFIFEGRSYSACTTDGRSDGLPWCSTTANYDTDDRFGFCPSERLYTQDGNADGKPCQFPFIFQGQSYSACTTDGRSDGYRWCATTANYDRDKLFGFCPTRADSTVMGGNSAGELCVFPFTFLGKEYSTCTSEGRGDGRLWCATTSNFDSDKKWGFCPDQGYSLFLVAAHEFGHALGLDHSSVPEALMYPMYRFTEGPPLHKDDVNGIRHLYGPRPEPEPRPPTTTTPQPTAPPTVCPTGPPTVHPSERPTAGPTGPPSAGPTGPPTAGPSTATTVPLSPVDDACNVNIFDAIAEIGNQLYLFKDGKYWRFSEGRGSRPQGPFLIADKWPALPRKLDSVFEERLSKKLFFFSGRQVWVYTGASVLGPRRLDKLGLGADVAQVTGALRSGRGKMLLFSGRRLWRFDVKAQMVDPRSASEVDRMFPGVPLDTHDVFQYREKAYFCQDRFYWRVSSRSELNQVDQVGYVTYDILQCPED
Carbonic anhydrase 12, sequence (O43570 whole entry): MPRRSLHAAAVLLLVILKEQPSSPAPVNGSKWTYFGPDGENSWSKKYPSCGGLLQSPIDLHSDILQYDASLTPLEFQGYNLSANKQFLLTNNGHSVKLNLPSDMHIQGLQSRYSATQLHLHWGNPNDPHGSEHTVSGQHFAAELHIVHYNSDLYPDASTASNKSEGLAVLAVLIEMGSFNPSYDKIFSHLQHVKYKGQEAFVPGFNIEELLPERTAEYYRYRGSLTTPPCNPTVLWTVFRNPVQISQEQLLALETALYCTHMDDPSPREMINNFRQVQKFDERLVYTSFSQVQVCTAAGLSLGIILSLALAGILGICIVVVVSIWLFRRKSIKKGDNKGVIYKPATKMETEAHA
Carbonic anhydrase 1, sequence (P00915 whole entry): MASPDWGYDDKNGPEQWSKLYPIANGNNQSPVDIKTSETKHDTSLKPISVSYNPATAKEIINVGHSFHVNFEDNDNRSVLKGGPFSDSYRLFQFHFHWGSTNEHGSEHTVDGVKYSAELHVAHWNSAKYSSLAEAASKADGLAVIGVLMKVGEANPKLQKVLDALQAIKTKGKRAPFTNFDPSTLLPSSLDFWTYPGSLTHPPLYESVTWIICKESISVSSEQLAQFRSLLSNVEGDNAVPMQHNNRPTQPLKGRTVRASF

Structure (SMILES)	Ki [1] [µM]	Ki (Carbonic anhydrase 1) [µM]	Ki (Carbonic anhydrase 2) [µM]	Ki (Carbonic anhydrase 12) [µM]	Ki (Carbonic anhydrase 9) [µM]	Ki [2] [nM]
O=C(NO)[C@H]1[C@@H](OCc2ccccc2)CCN1S(=O)(=O)c1ccc(Cl)c(Cl)c1	> 10	> 100	> 100			
CS(=O)(=O)N1C[C@@H](NS(=O)(=O)c2ccc(-c3ccccc3)cc2)C[C@@H]1C(=O)NO	3.88	> 100	> 100	47	> 100	2260
COc1ccc(S(=O)(=O)N2CCC[C@@H]2C(=O)NO)cc1	0.02	> 100	> 100			
O=C(NO)[C@H]1CCCN1S(=O)(=O)c1ccc(C#Cc2ccccc2)cc1	0.00083	> 100	> 100			0.25
O=C(NO)[C@H]1C[C@H](NS(=O)(=O)c2ccc(-c3ccccc3)cc2)CN1S(=O)(=O)c1ccc(Cl)c(Cl)c1	0.057	> 100	6.68	98.5	> 100	328
COc1ccc(S(=O)(=O)N2C[C@@H](NS(=O)(=O)c3ccc(-c4ccccc4)cc3)C[C@@H]2C(=O)NO)cc1	0.482	> 100	> 100	> 100	> 100	406
O=C(N[C@H]1C[C@H](C(=O)NO)N(S(=O)(=O)c2ccc(Cl)c(Cl)c2)C1)c1cccs1	> 10	> 100	> 100			> 10000
O=C(NO)[C@H]1C[C@H](NS(=O)(=O)c2ccc(-c3ccccc3)cc2)CN1S(=O)(=O)c1ccc(OC(F)(F)F)cc1	> 100	> 100	> 100	> 100	> 100	> 100000
O=C(NO)[C@H]1C[C@H](n2cc(-c3ccccc3)nn2)CN1S(=O)(=O)c1ccc(Cl)c(Cl)c1	1.55	> 100	> 100			
O=C(N[C@@H]1C[C@H](C(=O)NO)N(S(=O)(=O)c2ccc(Cl)c(Cl)c2)C1)c1cccs1	0.091	> 100	> 100			131
COc1ccc(S(=O)(=O)N2C[C@@H](NS(=O)(=O)c3ccc(-c4ccccc4)cc3)C[C@@H]2C(=O)O)cc1	> 100	8.4	6.13	9.19	20.7	> 100000
O=C(NO)[C@H]1C[C@@H](n2cc(-c3ccccc3)nn2)CN1S(=O)(=O)c1ccc(Cl)c(Cl)c1	> 10	> 100	> 100			
O=C(/C=C/c1ccco1)N[C@H]1C[C@H](C(=O)NO)N(S(=O)(=O)c2ccc(Cl)c(Cl)c2)C1	0.324	> 100	> 100			
O=C(Nc1ccc(S(=O)(=O)N2CCC[C@@H]2C(=O)NO)cc1)c1ccc([N+](=O)[O-])cc1	0.00011	> 100	> 100			0.087
CCCCCCO[C@H]1CCN(S(=O)(=O)c2ccc(Cl)cc2)[C@H]1C(=O)NO	> 10	> 100	> 100			> 10000
O=C(Nc1ccc(C(=O)Nc2ccc(S(=O)(=O)N3CCC[C@@H]3C(=O)NO)cc2)cc1)OCc1ccccc1	0.032	> 100	> 100			0.044
O=C(Nc1ccc(S(=O)(=O)N2CCC[C@@H]2C(=O)NO)cc1)OCc1ccccc1	0.473	> 100	> 100			2.16
O=C(NO)[C@H]1C[C@H](NS(=O)(=O)c2ccc(-c3ccccc3)cc2)CN1S(=O)(=O)c1ccc([N+](=O)[O-])cc1	> 100	52.9	44.8	> 100	23.3	
COc1ccc(S(=O)(=O)N2C[C@H](NC(=O)C(C)(C)C)C[C@@H]2C(=O)NO)cc1	0.123	> 100	> 100			26
O=C(NO)[C@H]1C[C@@H](NS(=O)(=O)c2ccc(-c3ccccc3)cc2)CN1S(=O)(=O)c1ccc(Cl)c(Cl)c1	0.541	> 100	24.8	67.2	> 100	> 10000
O=C(NO)[C@H]1C[C@H](NS(=O)(=O)c2ccc(-c3ccccc3)cc2)CN1S(=O)(=O)c1ccc(-c2ccccc2)cc1	0.294	> 100	> 100	8.82	21.4	54
